Patent US11008346B2, “Beta-lactamase inhibitors” (priority 2014, dated 2021)
Where two headings read alike, the source gives them in different places.

How the values were obtained:
SHV-5 β-lactamase = biological target: T1, SHV-5 β-lactamase (Klebsiella pneumoniae, UniProt P0A3M1); assay: β-lactamase enzyme inhibition, SHV-5; format: biochemical
T1 construct: made in house; host or cells: E. coli BL21(DE3)
Description: (§1) For SHV-5, Kpc-2, p99AmpC and OXA-1 β-lactamases, E. coli BL21(DE3) bacterial cells carrying expression plasmids (expressed as native untagged proteins) for the individual β-lactamases were grown in 1 L of Superbroth (Teknova Inc. Hollister, Calif.) supplemented with 100 μg/ml kanamycin selection and 1×5052 (0.5% glycerol, 0.05% glucose and 0.2% α-lactose) at 35° C. for 18-20 hours. Cells were harvested by centrifugation (4,000×g, 4° C., 20 min), resuspended in 50 ml of 10 mM HEPES pH 7.5 ( 1/20 of the initial volume). The cells were lysed by sonication (5 pulses of 45 seconds) at 45 W on ice. The lysates were clarified by centrifugation at 10,000×g for 40 minutes at 4° C. Samples were diluted 5-fold in 50 mM sodium acetate pH 5.0, stored overnight at 4° C., after which they were centrifuged at 10,000×g for 30 minutes to clarify, and filtered through 0.45 μm filters. The samples were loaded onto a 5 ml Capto S sepharose cation exchange column (GE Healthcare) pre-equilibrated with 50 mM sodium acetate pH 5.0. The column was washed with 5 column volumes of 50 mM sodium acetate pH 5.0 to wash out unbound protein and a linear gradient of NaCl (0 to 500 mM) was used to elute the protein (over 16 CV) from the column. Fractions were assayed for […] activity using Centa (Calbiochem, Gibbstown, N.J.) or Nitrocefin (EMD Millipore chemicals, Darmstadt, Germany) as a reporter β-lactamase substrate for activity in the isolated fractions. Active fractions were pooled, concentrated and further purified by gel filtration chromatography on a Superdex 75 prep grade gel filtration column (GE Healthcare, Piscataway, N.J.) pre-equilibrated in 50 mM Hepes pH 7.5, 150 mM NaCl. Active fractions were pooled, concentrated, and quantitated by BCA protein determination (Thermo Scientific, Rockford, Ill.), dialyzed into PBS and frozen at −80° C. in 20% glycerol until use.
(§2) An equal volume of diluted enzyme stock was added, and the plates were incubated at 37° C. for 15 min. Nitrocefin was used as substrate for p99 AmpC, VIM-2 and OXA-1 and dispensed into each well at a final concentration of 100 μM. Absorbance at 486 nm was immediately monitored for 10 min using a Biotek Powerwave XS2 microplate spectrophotometer using the GEN5 software package (Biotek Instruments, Winooski Vt.). In an analogous fashion, imipenem was used as substrate for KPC-2 and Cefotaxime was used for SHV-5, while changes in absorbance upon hydrolysis of the β-lactam ring were monitored at 300 nm and 260 nm respectively in UV-transparent 96-well microtiter assay plates. Maximum rates of hydrolysis were compared to those in control wells (without inhibitors), and percentages of enzyme inhibition were calculated for each concentration of inhibitor. The concentration of inhibitor needed to reduce the initial rate of hydrolysis of substrate by 50% (IC50) was calculated as the residual activity of β-lactamase at 486 nm using GraFit version 7 kinetics software package (Erithacus Software, Surrey, UK).
(§3) Using the methodology described above, examples of the current invention were evaluated for their ability to inhibit β-lactamase enzymes from all four Ambler classifications (A through D). […] NT=Not tested.

KPC-2 β-lactamase = biological target: T2, KPC-2 β-lactamase (Klebsiella pneumoniae, UniProt Q9F663); assay: β-lactamase enzyme inhibition, KPC-2; format: biochemical
T2 construct: made in house; host or cells: E. coli BL21(DE3)
Description: as §1, §2, §3

[1] = biological target: T3, VIM-2 metallo β-lactamase (Pseudomonas aeruginosa, UniProt Q9K2N0); assay: β-lactamase enzyme inhibition, VIM-2; format: biochemical; conditions: Nitrocefin 100 μM, 486 nm; 15 min at 37° C. preincubation; read-out: IC50 VIM-2 (Class B)
T3 construct: made in house; host or cells: E. coli BL21(DE3)
Description: For VIM-2 metallo β-lactamase, the procedure was identical with the following exceptions, first the protein was not pH adjusted to pH 5 with 50 mM sodium acetate. Second, the chromatography step was changed to a 5 ml Q sepharose anion exchange column pre-equilibrated with 50 mM Hepes pH 7.5, and elution of the protein was achieved by a linear gradient of NaCl (0-600 mM). Finally, the VIM-2 purification required a second run (3rd step) on the Q sepharose anion exchange column to achieve acceptable purity (>90%).
as §2, §3

p99 AmpC β-lactamase = biological target: T4, p99 AmpC β-lactamase (Enterobacter cloacae, UniProt P05364); assay: β-lactamase enzyme inhibition, p99 AmpC; format: biochemical
T4 construct: made in house; host or cells: E. coli BL21(DE3)
Description: as §1, §2
Using the methodology described above, examples of the current invention were evaluated for their ability to inhibit β-lactamase enzymes from all four Ambler classifications (A through D).

OXA-1 β-lactamase = biological target: T5, OXA-1 β-lactamase (Escherichia coli, UniProt P13661); assay: β-lactamase enzyme inhibition, OXA-1; format: biochemical; conditions: Nitrocefin 100 μM, 486 nm; 15 min at 37° C. preincubation; read-out: IC50 OXA-1 (Class D)
T5 construct: made in house; host or cells: E. coli BL21(DE3)
Description: as §1, §2, §3

[2] = test system: E. coli ESBL4 expressing CTX-M-15; assay: broth microdilution MIC, E. coli CTX-M-15; format: cell-based; conditions: Fixed CAZ (ceftazidime) 4 μg/mL
Text: (§4) To determine the ability of test compounds to potentiate the inhibition of the growth of bacterial strains that produce beta-lactamase enzymes, classic cell based broth microdilution MIC assays were employed. Six bacteria strains producing beta-lactamase enzymes were used: E. coli expressing the Class A Extended Spectrum Beta-Lactamase (ESBL) CTX-M-15, E. cloacae expressing the Class C P99, K. pneumoniae expressing the Class A carbapenemase KPC-3, P. aeruginosa expressing the Class B carbapenemase VIM-2, K pneumoniae expressing the class A carbapenemase KPC-2 and the class B carbapenemase VIM-4, and S. aureus producing the Class A penicillinase PC-1. The assay was conducted in Cation Adjusted Mueller Hinton Broth (CAMHB, BD #212322, BD Diagnostic Systems, Sparks, Md.). Bacteria strains were grown for 3-5 hours in CAMBH broth. Test compounds were added to a microtiter plate in 2-fold serial dilutions in CAMHB in a final concentration range of 32 μg/mL to 0.25 μg/ml. An overlay of CAMHB containing a Beta-lactam was added to the compounds at a final static concentration of 4 μg/ml. […] In addition to the titration of test compounds the MICs of a panel of control beta-lactams is also tested to ensure the strains are behaving consistently from test to test. Once the test compound and antibiotics are added the plates can be inoculated according to CLSI broth microdilution method. After inoculation the plates are incubated for 16-20 hours at 37° C., then the Minimal Inhibitory Concentration (MIC) of the test compound is determined visually.
(§5) Using the methodology described above, examples of the current invention were evaluated for their ability to inhibit the growth of β-lactamase-producing bacteria in the presence of a β-lactam antibiotic.
(§6) Representative results are shown in Table 4 where A represents an MIC of the fixed β-lactam antibiotic in the presence of >32 µg/mL of a β-lactamase inhibitor of exemplary compounds, B represents the MIC in the presence of between 8 and 32 µg/mL of a β-lactamase inhibitor of exemplary compounds, and C represents the MIC in the presence of ≤4 µg/mL of a β-lactamase inhibitor of exemplary compounds. NT=Not Tested.

[3] = test system: E. cloacae 144200 expressing Class C P99 AmpC; assay: broth microdilution MIC, E. cloacae P99; format: cell-based; conditions: Fixed CAZ (ceftazidime) 4 μg/mL
Text: as §4, §5, §6

[4] = test system: K. pneumoniae 156319 expressing KPC-3; assay: broth microdilution MIC, K. pneumoniae KPC-3; format: cell-based; conditions: Fixed Mero (meropenem) 4 μg/mL
Text: as §4, §5, §6

[5] = test system: K. pneumoniae A-1797 expressing KPC-2 and VIM-4; assay: broth microdilution MIC, K. pneumoniae KPC-2 and VIM-4; format: cell-based; conditions: Fixed Mero (meropenem) 4 μg/mL
Text: as §4, §5, §6

[6] = imipenem substrate, 300 nm, 15 min at 37° C. preincubation, read-out: IC50 KPC-2 (Class A)

T1 sequence (P0A3M1 22-286): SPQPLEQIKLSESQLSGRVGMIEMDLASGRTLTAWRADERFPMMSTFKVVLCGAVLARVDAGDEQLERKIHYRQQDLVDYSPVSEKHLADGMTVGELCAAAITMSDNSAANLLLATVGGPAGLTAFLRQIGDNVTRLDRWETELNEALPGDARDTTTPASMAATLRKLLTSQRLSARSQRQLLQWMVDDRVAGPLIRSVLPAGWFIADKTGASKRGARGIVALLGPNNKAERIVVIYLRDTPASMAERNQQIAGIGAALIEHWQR
T2 sequence (Q9F663 25-293, looked up): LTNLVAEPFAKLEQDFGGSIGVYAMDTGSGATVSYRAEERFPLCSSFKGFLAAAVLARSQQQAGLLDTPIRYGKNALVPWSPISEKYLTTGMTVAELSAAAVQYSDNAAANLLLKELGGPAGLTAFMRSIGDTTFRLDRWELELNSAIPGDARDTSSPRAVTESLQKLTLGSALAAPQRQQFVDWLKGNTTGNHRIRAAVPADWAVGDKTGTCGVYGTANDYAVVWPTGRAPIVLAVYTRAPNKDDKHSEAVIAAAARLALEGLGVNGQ
T4 sequence (P05364 21-381): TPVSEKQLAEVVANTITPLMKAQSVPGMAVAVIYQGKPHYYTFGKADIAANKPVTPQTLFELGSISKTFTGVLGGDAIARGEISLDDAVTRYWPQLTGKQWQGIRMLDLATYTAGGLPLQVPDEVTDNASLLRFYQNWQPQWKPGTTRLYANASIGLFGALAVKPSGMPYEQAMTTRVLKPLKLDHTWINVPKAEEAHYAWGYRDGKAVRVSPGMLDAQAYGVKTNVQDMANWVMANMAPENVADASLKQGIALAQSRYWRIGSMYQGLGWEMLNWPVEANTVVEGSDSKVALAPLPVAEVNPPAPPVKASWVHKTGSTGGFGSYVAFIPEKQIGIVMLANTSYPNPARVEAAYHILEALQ
T5 sequence (P13661 26-276): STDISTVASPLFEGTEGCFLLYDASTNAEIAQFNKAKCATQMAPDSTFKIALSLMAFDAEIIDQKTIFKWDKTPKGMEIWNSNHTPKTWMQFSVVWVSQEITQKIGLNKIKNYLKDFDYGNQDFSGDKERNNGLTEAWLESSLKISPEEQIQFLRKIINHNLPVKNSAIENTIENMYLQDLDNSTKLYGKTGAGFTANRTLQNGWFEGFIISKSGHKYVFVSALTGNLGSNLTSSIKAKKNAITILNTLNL

NS(=O)(=O)CCC(=O)N[C@H]1Cc2cccc(C(=O)O)c2OB1O [Example 35, (R)-2-Hydroxy-3-(3-sulfamoyl-propionylamino)-3,4-dihydro-2H-benzo[e][1,2]oxaborinin-8-carboxylic acid]
IC50 (SHV-5 β-lactamase): < 100 nM
IC50 (KPC-2 β-lactamase): < 100 nM
IC50 [1]: 100 to 1000 nM
IC50 (p99 AmpC β-lactamase): < 100 nM
IC50 (OXA-1 β-lactamase): < 100 nM
MIC of exemplary compounds in presence of fixed β-lactams, E. coli ESBL4 CTX-M-15 [2]: C (C represents the MIC in the presence of ≤4 g/mL of a β-lactamase inhibitor)
MIC of exemplary compounds in presence of fixed β-lactams, E. cl. 144200 p99 AmpC [3]: C (C represents the MIC in the presence of ≤4 g/mL of a β-lactamase inhibitor)
MIC of exemplary compounds in presence of fixed β-lactams, K.P. 156319 KPC-3 [4]: C (C represents the MIC in the presence of ≤4 g/mL of a β-lactamase inhibitor)
MIC of exemplary compounds in presence of fixed β-lactams, K.P. A-1797 KPC-2 VIM-4 [5]: C (C represents the MIC in the presence of ≤4 g/mL of a β-lactamase inhibitor)

NC(=O)NCC(=O)N[C@H]1Cc2cccc(C(=O)O)c2OB1O [Example 36, (R)-2-Hydroxy-3-(2-ureido-acetylamino)-3,4-dihydro-2H-benzo[e][1,2]oxaborinin-8-carboxylic acid]
IC50 (SHV-5 β-lactamase): < 100 nM
IC50 (KPC-2 β-lactamase; [6]): 100 to 1000 nM
IC50 [1]: 100 to 1000 nM
IC50 (p99 AmpC β-lactamase): < 100 nM
IC50 (OXA-1 β-lactamase): < 100 nM
MIC of exemplary compounds in presence of fixed β-lactams, E. coli ESBL4 CTX-M-15 [2]: C (C represents the MIC in the presence of ≤4 g/mL of a β-lactamase inhibitor)
MIC of exemplary compounds in presence of fixed β-lactams, E. cl. 144200 p99 AmpC [3]: C (C represents the MIC in the presence of ≤4 g/mL of a β-lactamase inhibitor)
MIC of exemplary compounds in presence of fixed β-lactams, K.P. 156319 KPC-3 [4]: C (C represents the MIC in the presence of ≤4 g/mL of a β-lactamase inhibitor)
MIC of exemplary compounds in presence of fixed β-lactams, K.P. A-1797 KPC-2 VIM-4 [5]: C (C represents the MIC in the presence of ≤4 g/mL of a β-lactamase inhibitor)

CN(C)S(=O)(=O)CCC(=O)N[C@H]1Cc2cccc(C(=O)O)c2OB1O [Example 55, (R)-3-(3-Dimethylsulfamoyl-propionylamino)-2-hydroxy-3,4-dihydro-2H-benzo[e][1,2]oxaborinine-8-carboxylic acid]
IC50 (SHV-5 β-lactamase): < 100 nM
IC50 (KPC-2 β-lactamase; [6]): < 100 nM
IC50 [1]: 1000 to 10000 nM
IC50 (p99 AmpC β-lactamase): < 100 nM
MIC of exemplary compounds in presence of fixed β-lactams, E. coli ESBL4 CTX-M-15 [2]: C (C represents the MIC in the presence of ≤4 g/mL of a β-lactamase inhibitor)
MIC of exemplary compounds in presence of fixed β-lactams, E. cl. 144200 p99 AmpC [3]: C (C represents the MIC in the presence of ≤4 g/mL of a β-lactamase inhibitor)
MIC of exemplary compounds in presence of fixed β-lactams, K.P. 156319 KPC-3 [4]: C (C represents the MIC in the presence of ≤4 g/mL of a β-lactamase inhibitor)
MIC of exemplary compounds in presence of fixed β-lactams, K.P. A-1797 KPC-2 VIM-4 [5]: B (B represents the MIC in the presence of between 8 and 32 g/mL of a β-lactamase inhibitor)

COC(=O)NCC(=O)N[C@H]1Cc2cccc(C(=O)O)c2OB1O [Example 56, (R)-2-Hydroxy-3-(2-methoxycarbonylamino-acetylamino)-3,4-dihydro-2H-benzo[e][1,2]oxaborinine-8-carboxylicacid]
IC50 (SHV-5 β-lactamase): < 100 nM
IC50 (KPC-2 β-lactamase; [6]): 100 to 1000 nM
IC50 [1]: 1000 to 10000 nM
IC50 (p99 AmpC β-lactamase): < 100 nM
MIC of exemplary compounds in presence of fixed β-lactams, E. coli ESBL4 CTX-M-15 [2]: C (C represents the MIC in the presence of ≤4 g/mL of a β-lactamase inhibitor)
MIC of exemplary compounds in presence of fixed β-lactams, E. cl. 144200 p99 AmpC [3]: C (C represents the MIC in the presence of ≤4 g/mL of a β-lactamase inhibitor)
MIC of exemplary compounds in presence of fixed β-lactams, K.P. 156319 KPC-3 [4]: C (C represents the MIC in the presence of ≤4 g/mL of a β-lactamase inhibitor)
MIC of exemplary compounds in presence of fixed β-lactams, K.P. A-1797 KPC-2 VIM-4 [5]: B (B represents the MIC in the presence of between 8 and 32 g/mL of a β-lactamase inhibitor)

O=C(CNC(=O)c1ccccc1)N[C@H]1Cc2cccc(C(=O)O)c2OB1O [Example 60, (R)-3-(2-Benzoylamino-acetylamino)-2-hydroxy-3,4-dihydro-2H-benzo[e][1,2]oxaborinine-8-carboxylic acid]
IC50 (SHV-5 β-lactamase): < 100 nM
IC50 (KPC-2 β-lactamase; [6]): < 100 nM
IC50 [1]: 10000 to 100000 nM
IC50 (p99 AmpC β-lactamase): < 100 nM
MIC of exemplary compounds in presence of fixed β-lactams, E. coli ESBL4 CTX-M-15 [2]: C (C represents the MIC in the presence of ≤4 g/mL of a β-lactamase inhibitor)
MIC of exemplary compounds in presence of fixed β-lactams, E. cl. 144200 p99 AmpC [3]: C (C represents the MIC in the presence of ≤4 g/mL of a β-lactamase inhibitor)
MIC of exemplary compounds in presence of fixed β-lactams, K.P. 156319 KPC-3 [4]: B (B represents the MIC in the presence of between 8 and 32 g/mL of a β-lactamase inhibitor)
MIC of exemplary compounds in presence of fixed β-lactams, K.P. A-1797 KPC-2 VIM-4 [5]: B (B represents the MIC in the presence of between 8 and 32 g/mL of a β-lactamase inhibitor)
